From ChEMBL document CHEMBL2074513, “Role of blood-brain barrier P-glycoprotein in limiting brain accumulation and sedative side-effects of asimadoline, a peripherally acting analgaesic drug” (Br J Pharmacol, 1999)

Experiments:
[1] = biological target: P-glycoprotein 1 and 3 (MDR1a/MDR1b) (Mus musculus, UniProt P21447+P06795); test: TP_TRANSPORTER: increase in brain concentration in mdr1a/1b(-/-) mouse; assay type: functional, organism-based; conditions: in vivo
[2] = biological target: ATP-dependent translocase ABCB1 (Homo sapiens, UniProt P08183); test: TP_TRANSPORTER: transepithelial transport (basal to apical) in MDR1-expressing LLC-PK1 cells; assay type: functional, cell-based; conditions: pig
[3] = biological target: ATP-dependent translocase ABCB1 (Mus musculus, UniProt P21447); test: TP_TRANSPORTER: transepithelial transport (basal to apical) in mdr1a-expressing LLC-PK1 cell; assay type: functional, cell-based; conditions: pig

Measured: Activity

ATP-dependent translocase ABCB1 (Mus musculus, UniProt P21447), sequence (P21447 whole entry): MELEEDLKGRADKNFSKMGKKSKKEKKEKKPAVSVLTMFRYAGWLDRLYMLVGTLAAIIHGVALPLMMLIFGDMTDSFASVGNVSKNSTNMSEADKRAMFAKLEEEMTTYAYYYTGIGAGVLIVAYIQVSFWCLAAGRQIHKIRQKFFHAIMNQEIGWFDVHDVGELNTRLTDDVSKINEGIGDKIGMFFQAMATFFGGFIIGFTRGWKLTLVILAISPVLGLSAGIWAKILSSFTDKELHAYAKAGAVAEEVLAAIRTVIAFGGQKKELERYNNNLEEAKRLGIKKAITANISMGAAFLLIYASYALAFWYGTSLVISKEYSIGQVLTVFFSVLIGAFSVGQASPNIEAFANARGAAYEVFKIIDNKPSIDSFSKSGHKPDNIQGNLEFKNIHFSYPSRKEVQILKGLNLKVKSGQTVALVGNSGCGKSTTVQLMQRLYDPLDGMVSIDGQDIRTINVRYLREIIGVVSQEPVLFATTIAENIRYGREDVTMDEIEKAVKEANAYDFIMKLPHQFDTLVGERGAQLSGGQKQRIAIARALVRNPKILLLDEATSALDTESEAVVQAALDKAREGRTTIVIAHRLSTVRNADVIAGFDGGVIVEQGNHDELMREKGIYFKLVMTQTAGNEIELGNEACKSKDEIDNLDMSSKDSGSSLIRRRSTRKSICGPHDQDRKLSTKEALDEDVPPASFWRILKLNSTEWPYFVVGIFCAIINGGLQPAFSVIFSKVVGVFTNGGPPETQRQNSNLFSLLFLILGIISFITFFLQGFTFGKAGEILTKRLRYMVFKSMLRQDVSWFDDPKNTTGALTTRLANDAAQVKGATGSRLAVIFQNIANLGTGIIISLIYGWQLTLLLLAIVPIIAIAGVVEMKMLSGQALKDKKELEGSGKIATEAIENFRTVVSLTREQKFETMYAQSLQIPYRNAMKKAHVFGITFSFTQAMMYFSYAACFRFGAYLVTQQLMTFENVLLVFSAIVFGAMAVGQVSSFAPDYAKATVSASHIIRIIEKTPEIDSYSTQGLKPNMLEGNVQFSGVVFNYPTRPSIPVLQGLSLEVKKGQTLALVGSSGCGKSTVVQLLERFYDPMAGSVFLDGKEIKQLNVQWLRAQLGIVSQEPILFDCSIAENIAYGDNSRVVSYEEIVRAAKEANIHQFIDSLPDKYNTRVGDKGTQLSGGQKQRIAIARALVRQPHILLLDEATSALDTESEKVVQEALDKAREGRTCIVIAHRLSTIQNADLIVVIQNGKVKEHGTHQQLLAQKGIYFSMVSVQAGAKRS
ATP-dependent translocase ABCB1 (Homo sapiens, UniProt P08183), sequence (P08183 whole entry): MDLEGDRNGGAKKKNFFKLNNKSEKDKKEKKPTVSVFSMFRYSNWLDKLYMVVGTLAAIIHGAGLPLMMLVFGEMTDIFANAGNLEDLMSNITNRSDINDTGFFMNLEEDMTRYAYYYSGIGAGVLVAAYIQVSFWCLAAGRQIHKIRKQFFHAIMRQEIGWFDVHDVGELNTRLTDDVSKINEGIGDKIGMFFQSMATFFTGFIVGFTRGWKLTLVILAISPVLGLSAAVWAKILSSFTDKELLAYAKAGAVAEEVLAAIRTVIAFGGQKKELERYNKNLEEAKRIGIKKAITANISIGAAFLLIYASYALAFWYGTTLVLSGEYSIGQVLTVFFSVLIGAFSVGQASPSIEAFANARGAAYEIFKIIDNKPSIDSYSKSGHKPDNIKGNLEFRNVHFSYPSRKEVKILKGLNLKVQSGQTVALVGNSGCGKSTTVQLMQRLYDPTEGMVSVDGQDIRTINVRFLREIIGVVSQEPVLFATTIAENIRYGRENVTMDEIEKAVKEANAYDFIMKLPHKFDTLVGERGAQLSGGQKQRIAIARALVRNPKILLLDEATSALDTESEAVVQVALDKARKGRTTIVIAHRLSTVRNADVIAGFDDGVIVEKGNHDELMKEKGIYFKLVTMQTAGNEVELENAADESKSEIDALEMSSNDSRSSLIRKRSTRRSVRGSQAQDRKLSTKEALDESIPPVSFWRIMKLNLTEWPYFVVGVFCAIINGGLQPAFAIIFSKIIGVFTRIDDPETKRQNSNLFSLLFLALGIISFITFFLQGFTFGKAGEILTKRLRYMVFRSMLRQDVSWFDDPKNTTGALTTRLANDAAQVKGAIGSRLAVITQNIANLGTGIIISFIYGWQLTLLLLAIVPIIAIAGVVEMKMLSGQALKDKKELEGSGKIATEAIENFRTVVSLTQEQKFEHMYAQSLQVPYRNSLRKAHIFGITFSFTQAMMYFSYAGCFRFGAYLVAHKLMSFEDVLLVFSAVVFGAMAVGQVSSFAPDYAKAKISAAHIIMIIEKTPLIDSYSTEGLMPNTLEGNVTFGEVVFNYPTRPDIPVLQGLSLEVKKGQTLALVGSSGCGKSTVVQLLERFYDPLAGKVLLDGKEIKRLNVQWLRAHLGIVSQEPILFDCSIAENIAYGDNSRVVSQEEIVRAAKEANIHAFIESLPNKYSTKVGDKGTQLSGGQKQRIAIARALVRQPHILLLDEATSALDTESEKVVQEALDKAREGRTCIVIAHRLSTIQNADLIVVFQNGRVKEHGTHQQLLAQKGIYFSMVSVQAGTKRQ

CN(C(=O)C(c1ccccc1)c1ccccc1)[C@H](CN1CC[C@H](O)C1)c1ccccc1 [ASIMADOLINE]
substrate [+]: all assays above
